Data from US11357770B2, “Method of treating immunoglobulin light chain amyloidosis” (ALTERITY THERAPEUTICS LIMITED, priority 2016, dated 2022).
Entries after “also recorded” stand apart in the source; their conditions may differ.

What was measured:
[1] = system: DAF-16; assay: DAF-16::GFP nuclear translocation in TJ356 nematodes; assay type: in vivo, Caenorhabditis elegans; details: 100 μg/mL H7-BJ 2 h with 2 nM 1033, 50 μM TETRA or 5 mM NAC
Experimental: (A) Image of DAF-16::GFP expression in control vehicle-fed and (B) cardiotoxic LC-fed worms (100 μg/mL H7-BJ for 2 h). (C-D) The subcellular distribution of DAF-16 expression in worms fed 2 h: vehicle, 100 μg/mL H7-BJ with or without 2 nM 1033, 50 μM tetracycline (TETRA) or 5 mM N-acetyl-cysteine (NAC). According to DAF-16 localization worms were divided into two phenotypes including “cytosolic” and “nuclear”. The percentage of DAF-16 localization in respect to vehicle fed worms was calculated based on 3 experiments, N=100. Mean±SE. **p<0.01 vs. vehicle, ºp<0.05 and ººp<0.01 vs. cardiotoxic LC, one-way ANOVA and Bonferroni's post hoc test. (E/F) Transgenic worms were fed with 1 mM H2O2 for 30 minutes as a positive control. DAF-16::GFP distribution (E) and HSP-16.2 and SOD-3 expression visualized by GFP-fluorescence (F).
(§1) DAF-16::green fluorescent protein (GFP) nuclear translocation was evaluated in TJ356 nematodes. Pharyngeal expression of HSP-16.2::GFP and SOD-3::GFP was determined in CL2070 and CF1553 worms, respectively. […] Organisms were scored as positive for nuclear localization when green foci were observed throughout the entire body from head to tail and as cytosolic when DAF-16::GFP was diffuse. The number of worms with each level of translocation were counted (at least 100 worms/condition). […] Average pixel intensity values were calculated by sampling images of different animals. […]

[2] = system: C. elegans; assay: C. elegans pharyngeal pumping rate (LC-induced pharyngeal dysfunction); details: for ROS generation and pumping dysfunction caused by cardiotoxic LC: 2 nM 1033, 50 μM TETRA or 5 mM NAC with 100 μg/mL LC
Experimental: Worms were fed for 2 h with 100 μg/mL H7-BJ in the absence or presence of 0-25 nM 1033. Control worms received vehicle alone (dotted line). Each value is the mean±SE, n=30. […] (B) Images obtained from the overlay of a contrast phase and MitoSOX fluorescence (arrows). Scale bar 50 μm. (C) The effects of cardiotoxic LC, 1033, cardotoxic LC+1033, H2O2 and H2O2+1033 on pharyngeal function. (D) The effects of Chelex® and EDTA on LC induced pharyngeal dysfunction.
MM2-BJ (Myeloma) and H7-BJ (Cardiotoxic LC) and in 5 mM PBS, pH 7.4, were administered to worms (100 worms/100 μL) at 100 μg/mL alone or with 50 μM TETRA or 5 mM NAC. Control worms received vehicle alone (Vehicle). After incubation for 2 h in the absence of OP50 E. coli, worms were plated on NGM plates seeded with bacteria.
Bristol N2 strain, transgenic CL2070 dvIs70 Is[hsp-16.2::gfp; rol-6(su1006)], CF1553 muls84 [(pAD76) sod-3p::GFP+rol-6] and TJ356, zls356Is[daf-16::daf-16-gfp; rol-6] were obtained from the Caenorhabditis elegans Genetic Center (CGC, University of Minnesota, USA) and propagated at 20° C. on solid Nematode Growth Medium (NGM) seeded with E. coli OP50 (from CGC) for food. The effect of LC on pharyngeal behaviour was investigated (Diomede et al. 2014). Briefly, ancestral N2 and transgenic CL2070, TJ356 and CF1553 worms were incubated with 100 μg/mL LC listed in Table 1A (100 worms/100 μL) in 5 mM PBS, pH 7.4. Control worms were incubated with 5 mM PBS, pH 7.4 (Vehicle) only. After 2 h of incubation on orbital shaking, worms were transferred onto NGM plates seeded with OP50 E. coli. The pharyngeal pumping rate, measured by counting the number of times the terminal bulb of the pharynx contracted over a 1-minute interval, was scored 20 h later. Experiments were also performed by feeding worms for 2 h with 100 μg/mL of H6-BJ, H7-BJ, H18-BJ, MM2-BJ, MM4-BJ or MM7-BJ alone or with 125 μM copper (as CuSO4).
The experimental conditions of Example 4 were repeated with cardiotoxic LC H7-BJ with or without 1033, Chelex® resin or EDTA as well as 1033, H2O2 and H2O2 together with 1033.

[3] = system: HSP-16.2; assay: Pharyngeal expression of HSP-16.2::GFP in CL2070 worms; assay type: in vivo, Caenorhabditis elegans; details: 100 μg/mL H7-BJ + 2 nM 1033, CL2070 worms
Experimental: (§2) Transgenic worms were fed for 2 h with: Vehicle (i, 5 mM PBS, pH 7.4) 100 μg/mL MM2-BJ (ii, Myeloma), 100 μg/mL H7-BJ (iii, Cardiotoxic LC), or 2 nM 1033 (iv, Cardiotoxic LC+ 1033). (A) Images of the HSP-16.2 expression as overlays of GFP-fluorescence and light microscopy in CL2070 transgenic worms. Scale bar 50 μm. (C) Images of SOD-3 expression as GFP-fluorescence (arrows) in CF1553 transgenic worms. Scale bar 50 μm. Quantified GFP intensity in (B) CL2070 and (D) CF1553 worms in response to treatments. Fluorescence intensity in each group was calculated as mean grey value+SE based on 3 experiments, N=25. **p<0.01 vs. Vehicle and ºp<0.05 and ººp<0.01 vs. Cardiotoxic LC, one-way ANOVA and Bonferroni's post hoc test.
as §1, with “animals. Mean pixel intensity for each experimental group was calculated using Cell-F software (Olympus).” for “animals.”

[4] = system: H7-BJ cardiotoxic LC; assay: Amplex Red H2O2 assay; assay type: biochemical, human; details: 100 μg/mL H7-BJ incubated with 2 nM 1033, room temperature
Experimental: H7-BJ and MM2-BJ proteins (100 μg/mL) in 10 mM sodium phosphate buffer (PB), pH 7.4, were incubated at room temperature in the presence or absence of 50 μM Chelex® resin or 2 nM 5,7-dichloro-8-hydroxy-2-(dimethylaminomethyl)quinoline (1033). Different times after incubation (0-2 h), 2 μL of solutions were put into a 96-well black plate, diluted 1:100 (vol/vol) with 10 mM PBS, pH 7.4, and the amount of H2O2 generated was determined by using the Amplex Red assay kit (Molecular probes, Life Technologies). To this end, 50 μL working solution of 100 μM Amplex Red and 200 mU/mL horseradish peroxidase in 10 mM PB, pH 7.4, was added to each well. The plate was shaken and incubated at room temperature for 30 min, protected from light. The fluorescence was read on a Tecan Infinite M200 microplate reader (Tecan, Austria) at excitation wavelength of 563 nm and emission wavelength of 587 nm. Averages and standard deviations were converted to H2O2 concentrations.

[5] = system: SOD-3; assay: Pharyngeal expression of SOD-3::GFP in CF1553 worms; assay type: in vivo, Caenorhabditis elegans; details: 100 μg/mL H7-BJ + 2 nM 1033, CF1553 worms
Experimental: as §2
as §1, with “animals. Mean pixel intensity for each experimental group was calculated using Cell-F software (Olympus).” for “animals.”

[6] = system: C. elegans; assay: Pharyngeal function, drugs administered after damage by cardiotoxic LC; assay type: in vivo, Caenorhabditis elegans; details: H7-BJ 1.5 h
Experimental: Pharyngeal performance of worms fed 100 μg/mL H7-BJ (Cardiotoxic LC) for 1.5 h and then treated for 30 min with 20 µM tetracycline (TETRA), 0.5-2 nM 1033 alone or together with 20 μM TETRA. Control worms fed vehicle alone. **p<0.001, *p<0.005 vs. vehicle, ººp<0.001 vs. Cardiotoxic LC, one-way ANOVA and Bonferroni's post hoc test. §§ p<0.01 significant interaction vs. worms fed Cardiotoxic LC+ 0.5 nM 1033, two-ways ANOVA and Bonferroni's post hoc test.
To reflect circumstances most likely encountered in the clinic drugs were administered to worms when the pharynx was already damaged by cardiotoxic LC. […] Then drugs were administered for 30 min and the pumping rate was scored.
Feeding experiments in which nematodes were fed H7-BJ for 1.5 h to generate pharangeal dysfunction, subsequently 20 μM TETRA, 0.5 nM 1033, 2 nM 1033, 20 μM TETRA and 0.5 nM 1033.

[7] = system: C. elegans N2 worms; assay: C. elegans life span experiments; assay type: in vivo, Caenorhabditis elegans
Experimental: N2 worms (100 worms/100 μL), at L3 larval stage, were fed for 2 h 100 μg/mL of H7-BJ alone or with 2 nM 1033. Worms were then transferred onto fresh NGM plates seeded with E. coli in the presence of the same drug concentration. Control worms were exposed, under the same conditions, to vehicle alone. After 20 h nematodes were transferred to fresh NGM plates seeded with bacteria and the number of live worms was scored (considered as day 0). To avoid overlapping generations, the worms were then transferred every day, in the absence of fluorodeoxyuridine, until they stopped laying eggs. To test the effect of repeated administration of 1033, worms were fed for 2 h 100 μg/mL of H7-BJ and 2 nM 1033 and then transferred onto fresh NGM plates seeded with E. coli in the presence of the same drug concentration. Then nematodes were transferred every day, in a new NGM plate in the presence of freshly dissolved 2 nM 1033. The number of live worms was determined for each consecutive day until all worms were dead.

[8] = Stability of the drug; assay type: physicochemical
[9] = system: C. elegans; assay: Endogenous metal levels (Cu, Zn, Fe) in C. elegans; assay type: in vivo, Caenorhabditis elegans; details: 100 μg/mL H7-BJ + 2 nM 1033
Experimental: FIG. 3 provides graphical representations of endogenous metal levels and the effects of added copper on C. elegans pharyngeal function. Worms fed with 100 μg/mL MM2-BJ (myeloma), 100 μg/mL cardiotoxic LC H7-BJ, cardiotoxic LC+ 2 nM 1033, or metal free water (vehicle) were analysed for the amount of endogenous Cu (A), Zn and Fe (B).

Compound | activation (nuclear translocation) of DAF-16 induced by the cardiotoxic LC [1] | ROS generation and pumping dysfunction caused by cardiotoxic LC [2] | effect on the pharyngeal pumping dysfunction caused by cardiotoxic LC ([2]; 100 μg/mL H7-BJ with 50 μM TETRA or 5 mM NAC, pumping 20 h after plating) | IC50 ([2]; Caenorhabditis elegans, read-out: IC50 value of TETRA (pharyngeal dysfunction)) | LC-induced HSP-16.2 protein expression in the pharynx [3] | H2O2 (ROS) production by H7-BJ [4] | LC-induced SOD-3 protein expression in the pharynx [5] | maximal recovery of pharangeal function ([6]; then 2 nM 1033) | restoring pharangeal function after damage by H7-BJ ([6]; then 20 μM TETRA or 0.5 nM 1033 alone) | restoring pharyngeal function after damage by H7-BJ ([6]; then drug 30 min, 2 nM 1033 or 20 μM TETRA) | median survival ([7]; H7-BJ + 2 nM/day 1033 (repeated administration), vehicle 13 days) | protective effect on survival, single dose ([7]; single dose of 1033 at 2 nM, H7-BJ-fed worms) | stability under physiological conditions and in a variety of standard solvents [8] | cardiotoxic LC-induced elevation of copper levels in worms [9] | pharyngeal impairment caused by all cardiotoxic LC under investigation ([2]; 2 nM 1033) | pumping rate, 1033 alone ([2]; 1033 alone, no LC) | pharyngeal toxicity induced by exposure to exogenous H2O2 ([2]; H2O2 + 1033)
CC(=O)N[C@@H](CS)C(=O)O [NAC, N-acetyl cysteine, reference compound] | not observed | capable of neutralizing | protective effect | – | – | – | – | – | – | – | – | – | – | – | – | – | –
CN(C)[C@@H]1C(O)=C(C(N)=O)C(=O)[C@@]2(O)C(O)=C3C(=O)c4c(O)cccc4[C@@](C)(O)[C@H]3C[C@@H]12 [TETRA, tetracycline, reference compound] | – | – | – | 20 µM | – | – | – | – | – | – | – | – | – | – | – | – | –
CN(C)Cc1ccc2c(Cl)cc(Cl)c(O)c2n1 [compound 1033, 5,7-dichloro-8-hydroxy-2-(dimethylaminomethyl)quinoline] | counteracted | capable of neutralizing | – | – | significantly reduced | significantly attenuated; also recorded: did prevent the increase | significantly reduced | 53% | no effect | restoring normal pharyngeal function | 13 days | No protective effect | extremely stable | counteracted | completely abolished | did not affect | did not counteract
